In patent US9593140B2, “Antibacterial tylosin derivatives and methods for their preparation” (Bayer Intellectual Property GmbH, priority 2011, dated 2017):

Legend:
Type in all cases: cell-based
[1] = tested on: Mannhemia hemolytica KB345; assay: Paper disc assay, M. hemolytica KB345 (Tilmicosin-sensitivity strain); details: for zone of inhibition at 3 mg/disc / zone of inhibition at 10 mg/disc / zone of inhibition at 30 mg/disc / zone of inhibition at 100 mg/disc / zone of inhibition at 1 mg/disc: 24 h; for zone of inhibition at 1 mg/disc: 1 mg/6 mm disk
Protocol: (§1) (1) Antibacterial Activities Against Mannheimia and Pasteurella were Determined by the Following Steps:
(§2) 1) M. hemolytica KB345 (Tilmicosin-sensitivity strain) and M. hemolytica KB346 (Tilmicosin-low sensitivity strain) were provided. KB 345 strain stored at −80° C. was seeded to BHIB agar medium (10 mL) by using Microbank beads (Pro-Lab) and platinum nail. After statically incubating the KB 345 strain for 24 hours at 37° C., it was seeded to maintaining slant BHIB agar medium (7 mL) by using platinum loop, further statically incubated for 24 hours at 37° C. to obtain slant. One platinum loop of KB 345 strain stored at the slant was inoculated into a large test tube charged with BHIB liquid medium (10 mL) and then incubated for 24 hours at 37° C. with shaking.
(§3) 2) A paper disc (ADVANTEC, Φ:6 mm) was impregnated with a solution of test compound and dried under reduced pressure.
(§4) 3) To a melted BHIB agar medium was inoculated 1% of the broth obtained from step 1) above to prepare a test plate. After the medium set, the paper disc prepared in step 2) above was put on the plate and it was incubated at 37° C.
(§5) 4) After one day, the inhibition zone diameter and clarity (A to E) were determined.

[2] = tested on: Bacillus subtilis ATCC6633; assay: Paper disc assay, Bacillus subtilis (S)
Protocol: (§6) (2) Antibacterial activities against other bacteria were determined with Micrococcus luteus ATCC9341 (1), Bacillus subtilis […] (s), Escherichia coli NIHJ (c), Xanthomonas campestris KB88 (X), Mucor racemosus IFO 4581 (Mu) and Candida albicans ATCC 64548 (Ca).
(§7) Bacillus subtilis ATCC6633 was incubated in Davis synthetic medium and then the seed broth was combined with the medium in the ratio of 1:99 to obtain a test plate. Micrococcus luteus ATCC9341, Escherichia coli NIHJ and Xanthomonas campestris KB88 were respectively incubated in Nutrient agar medium and inoculated at 0.2%, 0.5% and 1.0%. Mucor racemosus IFO 4581 and Candida albicans ATCC 64548 were respectively incubated in GY agar medium and then inoculated at 0.3% and 0.2%.
(§8) A paper disc (ADVANTEC, Φ:6 mm) was impregnated with a solution of test compound and dried under reduced pressure. The paper disc was put on the test plate and it was incubated for 24 hours at 37° C. After incubation, the inhibition zone diameter and clarity (A to E) were determined.

[3] = tested on: Micrococcus luteus ATCC9341; assay: Paper disc assay, Micrococcus luteus (l)
Protocol: as §6, §7, §8

[4] = tested on: Xanthomonas campestris KB88; assay: Paper disc assay, Xanthomonas campestris (X)
Protocol: as §6, §7, §8

[5] = tested on: Mannhemia hemolytica KB346; assay: Paper disc assay, M. hemolytica KB346 (Tilmicosin-low sensitivity strain)
Protocol: as §1, §2, §3, §4, §5
For KB346 strain, the same procedures were repeated.

Compound | zone of inhibition at 3 mg/disc ([1]; Table 2, 3 mg/6 mm disk) [mm] | zone of inhibition at 10 mg/disc ([1]; Table 2, 10 mg/6 mm disk) [mm] | zone of inhibition at 30 mg/disc ([1]; Table 2, 30 mg/6 mm disk) [mm] | zone of inhibition at 100 mg/disc ([1]; Table 2, 100 mg/6 mm disk) [mm] | Inhibition zone (mm) ([1]; Table 4, 10 mg/6 mm disk) | Inhibition zone (mm) ([1]; Table 4, 30 mg/6 mm disk) | Inhibition zone (mm) ([1]; Table 4, 100 mg/6 mm disk) | Inhibition zone (mm) ([5]; Table 5, 30 mg/6 mm disk) | Inhibition zone (mm) ([5]; Table 5, 100 mg/6 mm disk) | zone of inhibition at 1 mg/disc ([1]; Table 2) [mm] | further results
CC[C@H]1OC(=O)C[C@@H](O)[C@H](C)[C@@H](O[C@@H]2OC(C)[C@@H](O)C(N(C)C)C2O)[C@@H](CCn2cc(-c3ccc(N(C)C)cc3)nn2)C[C@@H](C)C(=O)/C=C/C(C)=C/[C@@H]1CO[C@@H]1OC(C)[C@@H](O)C(OC)C1OC (some centres unmarked) [YT29, 20-(4-(4-dimethylaminophenyl)-1H-1,2,3-triazol-1-yl)-20-deoxodesmycosin] | 13.5 | 16 | 17.5 | 20 |  |  |  |  |  |  | Inhibition zone (mm) ([2]; 0.1 mg/6 mm disc): 7 mm; Inhibition zone (mm) ([2]; 1 mg/6 mm disc): 10 mm; Inhibition zone (mm) ([2]; 10 mg/6 mm disc): 15 mm; Inhibition zone (mm) ([3]; 0.1 mg/6 mm disc): 11 mm; Inhibition zone (mm) ([3]; 1 mg/6 mm disc): 19.5 mm; Inhibition zone (mm) ([3]; 10 mg/6 mm disc): 25.5 mm; Inhibition zone (mm) ([4]; 0.1 mg/6 mm disc): 7 mm; Inhibition zone (mm) ([4]; 1 mg/6 mm disc): 15 mm; Inhibition zone (mm) ([4]; 10 mg/6 mm disc): 24 mm
CCC1OC(=O)CC(O)C(C)C(OC2OC(C)C(O)C(N(C)C)C2O)C(CC=O)CC(C)C(=O)C=CC(C)=CC1CN=[N+]=[N-] (centres unmarked) [YT107, 23-azido-23-deoxo-5-O-mycaminosyltylonolide] |  |  |  |  | 16.0 | 18.0 | 21.5 | 10.5 | 15.0 |  | Inhibition zone (mm) ([1]; Table 4, 3 mg/6 mm disk): 12.0 mm
CCC1OC(=O)CC(O)C(C)C(OC2OC(C)C(O)C(N(C)C)C2O)C(CCN=[N+]=[N-])CC(C)C(=O)C=CC(C)=CC1COC1OC(C)C(O)C(OC)C1OC (centres unmarked) [YT11, 20-azido-20-deoxodesmycosin] |  |  |  |  |  |  |  |  |  |  | Inhibition zone (mm) ([1]; Table 2, 3 mg/6 mm disk): 10.0 mm; Inhibition zone (mm) ([1]; Table 2, 10 mg/6 mm disk): 13.0 mm; Inhibition zone (mm) ([1]; Table 2, 30 mg/6 mm disk): 16.0 mm; Inhibition zone (mm) ([1]; Table 2, 100 mg/6 mm disk): 18.0 mm; Inhibition zone (mm) ([5]; Table 3, 100 mg/6 mm disk): 11.0 mm
CC[C@H]1OC(=O)C[C@@H](O)[C@H](C)[C@@H](O[C@@H]2O[C@H](C)[C@@H](O)[C@H](N(C)C)[C@H]2O)[C@@H](CC=O)C[C@@H](C)C(=O)/C=C/C(C)=C/[C@@H]1CO [YT106, 5-O-mycaminosyltylonolide] |  |  |  |  | 8.5 | 12.5 | 15.0 | 13.0 | 17.0 |  | Inhibition zone (mm) ([5]; Table 5, 10 mg/6 mm disk): 9.0 mm
CC[C@H]1OC(=O)C[C@@H](O)[C@H](C)[C@@H](O[C@@H]2OC(C)[C@@H](O)C(N(C)C)C2O)[C@@H](CCn2cc(-c3cc(C)c(C)cc3C)nn2)C[C@@H](C)C(=O)/C=C/C(C)=C/[C@@H]1CO[C@@H]1OC(C)[C@@H](O)C(OC)C1OC (some centres unmarked) [YT25, 20-(4-(2,4,5-trimethylphenyl)-1H-1,2,3-triazol-1-yl)-20-deoxodesmycosin] | 12 | 14 | 17 | 18.5 |  |  |  |  |  | 8 | 
CCCNC[C@]1(O)[C@H](C)O[C@@H](O[C@H]2[C@H](C)[C@@H](O[C@@H]3O[C@H](C)C[C@H](N(C)C)[C@H]3O)[C@](C)(O)C[C@@H](C)CN[C@H](C)[C@@H](O)[C@](C)(O)[C@@H](CC)OC(=O)[C@@H]2C)C[C@@]1(C)OC [Tulathromycin, reference compound] | 16 | 18 |  |  |  |  |  |  |  | 12.5 | 
